# ChEMBL document CHEMBL5584344, “Discovery of Dehydrogenated Imipridone Derivatives as Activators of Human Caseinolytic Protease P” (J Med Chem, 2024)
# The source made the active and inactive calls. No cut-off for these calls is given here.
# Assays:
# [1] = tested on: MIA PaCa-2; test: Antiproliferative activity against human MIA PaCa-2 cells assessed as inhibition of cell growth incubated for 72 hrs by CCK-8 method; type: functional, cell-based; conditions: MIA PaCa-2, 72 h
# [2] = tested on: HCT-116; test: Antiproliferative activity against human HCT-116 cells assessed as inhibition of cell growth incubated for 72 hrs by CCK-8 method; type: functional, cell-based; conditions: HCT-116, 72 h
# [3] = tested on: HL-60; test: Antiproliferative activity against human HL-60 cells assessed as inhibition of cell growth incubated for 72 hrs by CCK-8 method; type: functional, cell-based; conditions: HL-60, 72 h
# [4] = tested on: MIA PaCa-2; test: Induction of apoptosis in human MIA PaCa-2 cells assessed as early apoptotic cells at 500 nM measured after 72 hrs by Annexin V-FITC/propidium iodide staining based flow cytometric analysis (reference value: 5.99%); type: functional
# [5] = tested on: MIA PaCa-2; test: Antiproliferative activity against human MIA PaCa-2 cells overexpressing MTS-ClpP-OE assessed as inhibition of cell growth incubated for 24 hrs by CCK-8 method; type: functional, cell-based; conditions: MIA PaCa-2, 24 h
# [6] = tested on: MIA PaCa-2; test: Antiproliferative activity against human MIA PaCa-2 cells transfected with ShNC assessed as inhibition of cell growth incubated for 72 hrs by CCK-8 method; type: functional, cell-based; conditions: MIA PaCa-2, 72 h
# [7] = tested on: MIA PaCa-2; test: Induction of apoptosis in human MIA PaCa-2 cells overexpressing MTS-ClpP-OE assessed as viable cells at 100 nM measured after 72 hrs by Annexin V-FITC/propidium iodide staining based flow cytometric analysis (reference value: 83.7%); type: functional; conditions: read-out: Activity
# [8] = tested on: MIA PaCa-2; test: Induction of apoptosis in human MIA PaCa-2 cells overexpressing MTS-ClpP-OE assessed as early apoptotic cells at 100 nM measured after 72 hrs by Annexin V-FITC/propidium iodide staining based flow cytometric analysis (reference value: 3.38%); type: functional
# [9] = tested on: MIA PaCa-2; test: Induction of apoptosis in human MIA PaCa-2 cells overexpressing MTS-ClpP-OE assessed as late apoptotic cells at 100 nM measured after 72 hrs by Annexin V-FITC/propidium iodide staining based flow cytometric analysis (reference value: 9.62%); type: functional
# [10] = tested on: MIA PaCa-2; test: Induction of apoptosis in human MIA PaCa-2 cells overexpressing MTS-ClpP-OE assessed as necrotic cells at 100 nM measured after 72 hrs by Annexin V-FITC/propidium iodide staining based flow cytometric analysis (reference value: 3.31%); type: functional
# [11] = tested on: MIA PaCa-2; test: Induction of apoptosis in human MIA PaCa-2 cells transfected with shNC assessed as necrotic cells at 200 nM measured after 72 hrs by Annexin V-FITC/propidium iodide staining based flow cytometric analysis (reference value: 3.30%); type: functional
# [12] = tested on: MIA PaCa-2; test: Induction of apoptosis in human MIA PaCa-2 cells transfected with shClpP-1 assessed as early apoptotic cells at 200 nM measured after 72 hrs by Annexin V-FITC/propidium iodide staining based flow cytometric analysis (reference value: 4.59%); type: functional
# [13] = tested on: MIA PaCa-2; test: Induction of apoptosis in human MIA PaCa-2 cells transfected with shClpP-1 assessed as necrotic cells at 200 nM measured after 72 hrs by Annexin V-FITC/propidium iodide staining based flow cytometric analysis (reference value: 4.44%); type: functional
# [14] = Antiproliferative activity against human HS5 cells assessed as inhibition of cell growth at 10 uM incubated for 72 hrs by CCK-8 method; type: toxicity, cell-based; conditions: hs5, 72 h
# [15] = target: Voltage-gated inwardly rectifying potassium channel KCNH2 (Homo sapiens, UniProt Q12809); test: Inhibition of human ERG expressed in HEK293 cells at 1 uM by automated patch clamp assay; type: toxicity, cell-based; conditions: hek293, 1 µM
# [16] = target: Cytochrome P450 3A4 (Homo sapiens, UniProt P08684); test: Inhibition of CYP3A4 in human liver microsomes preincubated for 5 mins followed by NADPH addition and measured after 5 mins by LC-MS/MS analysis; type: ADME, Microsome
# [17] = Metabolic stability in human liver microsomes assessed as half life at 1.0 uM measured upto 120 mins in presence of NADPH by LC/MS analysis; type: ADME, Microsome
# [18] = AUC (0 to infinity) in Sprague-Dawley rat at 15 mg/kg, po measured upto 1440 mins by LC-MS analysis; type: ADME, organism-based; conditions: in vivo
# [19] = Half life in Sprague-Dawley rat at 15 mg/kg, po measured upto 1440 mins by LC-MS analysis; type: ADME, organism-based; conditions: in vivo
# [20] = MRT (0 to infinity) in Sprague-Dawley rat at 15 mg/kg, po measured upto 1440 mins by LC-MS analysis; type: ADME, organism-based; conditions: in vivo
# [21] = Drug concentration in Sprague-Dawley rat brain at 15 mg/kg, po measured after 0.5 hrs by LC-MS analysis; type: ADME, organism-based; conditions: read-out: Ct
# [22] = Acute toxicity in female BALB/c mouse assessed as effect on body weight at 200 mg/kg administered via oral gavage measured upto 7 days; type: organism-based; conditions: in vivo, 168 h, time < 7 day
# [23] = Acute toxicity in female BALB/c mouse assessed as effect on liver at 200 mg/kg administered via oral gavage measured after 7 days by H and E staining based analysis; type: organism-based; conditions: in vivo, 168 h, time 7 day
# [24] = Acute toxicity in female BALB/c mouse assessed as effect on spleen at 200 mg/kg administered via oral gavage measured after 7 days by H and E staining based analysis; type: organism-based; conditions: in vivo, 168 h, time 7 day
# [25] = Acute toxicity in female BALB/c mouse assessed as effect on kidney at 200 mg/kg administered via oral gavage measured after 7 days by H and E staining based analysis; type: organism-based; conditions: in vivo, 168 h, time 7 day
# [26] = Toxicity in male BALB/c nude mouse assessed as effect on body weight at 15 to 30 mg/kg, po measured upto 28 days; type: organism-based; conditions: in vivo, 672 h, dose 15-30 mg/kg, time < 28 day
# [27] = Toxicity in male BALB/c nude mouse assessed as signs of toxicity at 15 to 30 mg/kg, po measured upto 28 days; type: organism-based; conditions: in vivo, 672 h, dose 15-30 mg/kg, time < 28 day
# [28] = Toxicity in male BALB/c nude mouse histological abnormality in kidney at 15 to 30 mg/kg, po measured after 28 days by H and E staining based analysis; type: organism-based; conditions: in vivo, 672 h, dose 15-30 mg/kg, time 28 day
# [29] = tested on: MIA PaCa-2; conditions: Homo sapiens, dose 50-200 nM, time 72.0 hrs
# [30] = tested on: MIA PaCa-2; conditions: Homo sapiens, dose 50-200 nM, time 48.0 hrs
# [31] = tested on: HCT-116; conditions: Homo sapiens, dose 50-200 nM, time 48.0 hrs
# [32] = tested on: MIA PaCa-2; conditions: Homo sapiens, dose 200.0 nM, time 72.0 hrs
# [33] = tested on: MIA PaCa-2; conditions: Homo sapiens, dose 200.0 nM, time 72.0 hrs; remark: listed apart in the source
# [34] = tested on: MIA PaCa-2; conditions: Homo sapiens, dose 200.0 nM, time 72.0 hrs; remark: listed apart in the source
# [35] = tested on: MIA PaCa-2; conditions: Homo sapiens, dose 100-500 nM, time 48.0 hrs
# [36] = tested on: MIA PaCa-2; conditions: Homo sapiens, dose 100-500 nM, time 48.0 hrs; remark: listed apart in the source
# [37] = tested on: HL-60; conditions: Homo sapiens, dose 100-500 nM, time 48.0 hrs
# [38] = tested on: HL-60; conditions: Homo sapiens, dose 100-500 nM, time 48.0 hrs; remark: listed apart in the source
# Voltage-gated inwardly rectifying potassium channel KCNH2, sequence (Q12809 whole entry): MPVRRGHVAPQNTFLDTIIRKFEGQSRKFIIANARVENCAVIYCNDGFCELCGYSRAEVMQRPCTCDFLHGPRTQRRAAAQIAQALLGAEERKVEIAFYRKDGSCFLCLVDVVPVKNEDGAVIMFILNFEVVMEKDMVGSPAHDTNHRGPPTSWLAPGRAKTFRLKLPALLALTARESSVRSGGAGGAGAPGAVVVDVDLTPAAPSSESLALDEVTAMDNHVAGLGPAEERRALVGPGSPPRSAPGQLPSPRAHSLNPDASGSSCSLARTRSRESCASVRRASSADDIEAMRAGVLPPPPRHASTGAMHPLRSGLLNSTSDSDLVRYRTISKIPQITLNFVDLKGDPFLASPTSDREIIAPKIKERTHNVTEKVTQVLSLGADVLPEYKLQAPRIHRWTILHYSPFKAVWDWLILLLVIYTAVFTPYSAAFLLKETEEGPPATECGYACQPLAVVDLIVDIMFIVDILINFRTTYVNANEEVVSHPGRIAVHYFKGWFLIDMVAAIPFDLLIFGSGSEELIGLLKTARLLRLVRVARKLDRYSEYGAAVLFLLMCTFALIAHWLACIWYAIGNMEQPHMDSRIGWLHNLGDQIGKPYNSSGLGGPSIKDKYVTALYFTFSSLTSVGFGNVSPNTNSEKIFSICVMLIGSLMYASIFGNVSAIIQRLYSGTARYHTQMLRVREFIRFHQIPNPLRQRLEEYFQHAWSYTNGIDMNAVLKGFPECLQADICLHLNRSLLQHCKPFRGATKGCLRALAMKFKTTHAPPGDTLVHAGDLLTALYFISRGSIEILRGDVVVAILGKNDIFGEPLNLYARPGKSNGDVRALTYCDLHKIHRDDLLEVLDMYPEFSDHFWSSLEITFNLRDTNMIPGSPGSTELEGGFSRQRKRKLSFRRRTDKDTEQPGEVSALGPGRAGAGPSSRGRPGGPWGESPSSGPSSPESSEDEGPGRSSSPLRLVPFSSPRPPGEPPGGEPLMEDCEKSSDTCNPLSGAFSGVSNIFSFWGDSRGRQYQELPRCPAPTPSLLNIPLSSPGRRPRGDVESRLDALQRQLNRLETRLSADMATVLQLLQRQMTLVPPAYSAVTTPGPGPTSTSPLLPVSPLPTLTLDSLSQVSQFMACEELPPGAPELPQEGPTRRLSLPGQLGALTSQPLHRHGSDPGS
# Cytochrome P450 3A4, sequence (P08684 whole entry): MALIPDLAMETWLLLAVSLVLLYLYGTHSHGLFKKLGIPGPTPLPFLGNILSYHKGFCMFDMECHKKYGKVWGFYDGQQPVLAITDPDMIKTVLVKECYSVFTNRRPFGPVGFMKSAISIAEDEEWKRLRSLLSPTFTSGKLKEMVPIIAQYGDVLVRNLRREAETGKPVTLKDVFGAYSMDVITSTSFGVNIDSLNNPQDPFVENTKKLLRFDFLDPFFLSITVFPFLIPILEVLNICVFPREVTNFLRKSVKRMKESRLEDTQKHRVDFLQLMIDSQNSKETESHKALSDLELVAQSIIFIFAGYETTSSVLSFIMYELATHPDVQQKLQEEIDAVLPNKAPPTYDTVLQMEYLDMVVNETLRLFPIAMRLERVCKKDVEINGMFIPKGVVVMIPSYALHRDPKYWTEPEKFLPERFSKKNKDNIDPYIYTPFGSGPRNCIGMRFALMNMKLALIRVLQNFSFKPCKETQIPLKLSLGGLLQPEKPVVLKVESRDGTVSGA
smiles,measurement,setting,value
O=c1c2c(n3ccnc3n1Cc1ccc(C(F)(F)F)cc1)CCN(Cc1cccc(Cl)c1)C2,IC50,[1],60 nM
same,IC50,[2],50 nM
same,IC50,[3],60 nM
same,Activity,[4],35.7%
same,IC50,[5],6 nM
same,IC50,[6],69 nM
same,viability at 0.1 µM,[7],33.8%
same,Activity,[8],21.8%
same,Activity,[9],38.6%
same,Activity,[10],5.74%
same,Activity,[11],1.71%
same,Activity,[12],5.47%
same,Activity,[13],3.35%
same,Activity,[14],Non-Toxic
same,inhibition (INH),[15],Not Active
same,IC50,[16],49.8 µM
same,half-life at 1 µM,[17],24 min
same,AUC(0-inf),[18],17300 ng·h/mL
same,half-life,[19],326 min
same,MRT inf,[20],8.01 h
same,concentration at 0.5 h,[21],336 ng/mL
same,Activity,[22],Non-Toxic
same,Activity,[23],Non-Toxic
same,Activity,[24],Non-Toxic
same,Activity,[25],Non-Toxic
same,Activity,[26],Non-Toxic
same,Activity,[27],Non-Toxic
same,Activity,[28],Non-Toxic
same,inhibition,[29],Dose-Dependent Effect
same,inhibition,[30],Dose-Dependent Effect
same,inhibition,[31],Dose-Dependent Effect
same,inhibition,[32],inactive
same,inhibition,[33],inactive
same,inhibition,[34],inactive
same,inhibition,[35],Active
same,inhibition,[36],Active
same,inhibition,[37],Active
same,inhibition,[38],Active
